Patent US5763435A, “Sulfate conjugates of ursodeoxycholic acid, and their beneficial use in inflammatory disorders” (priority 1995, dated 1998)
“And” between values parts separate entries of the source, which are not always exact repeats. Identical values can stand only once.

Legend:
Assay type in all cases: in vivo, Sprague-Dawley rats
[1] = system: bile-flow; assay: Bile-flow and bile acid secretion during i.v. infusion; conditions: for Bile flow, maximum / Bile salt output (biliary bile acid secretion rate), maximum: i.v. infusion 0.5, 1.0, 2.0 μmol/min/100 g, mean ± SEM, six animals; for Apparent choleretic activity (slope of regression line): bile acid secretion rate vs bile-flow
Experimental: (§1) Adult male Sprague-Dawley rats (body weight 200-230 g) were anesthetized by an intraperitoneal injection of pentobarbital (Nembutal, 7.5 mg/100 g body weight), and maintained under sedation by additional doses. The right jugular vein and the common bile duct were cannulated using PE-50 polyethylene tubing (Clay-Adams, Parsippany, N.J.). Body temperature was maintained throughout the experiment at 37° C. using a rectal probe and a thermostatically controlled heating pad (Harvard Apparatus Co., Inc., Millis, Mass.). Saline was infused at a rate of 1.0 ml/h using a Harvard pump (Harvard Apparatus Co., Inc.) into the jugular vein for a control period of 2h. After collecting two 10 minute bile samples for base-line analysis, the bile acids were individually infused intravenously (i.v.) for 30 minutes in stepwise increasing doses (0.5, 1.0, and 2.0 μmol/min/100 g body weight). Bile acid solutions were prepared in 3% human albumin in 0.45% saline. Six animals were used for each experiment and bile was collected every 10 minutes into preweighed tubes. At the end of the experiment, blood was obtained by cardiac puncture, and urine was obtained by aspiration of the bladder. All biological specimens were stored at -20° C. This animal study protocol (#1 B 10044) was approved by the Bioethics committee of the Children's Hospital Medical Center (Cincinnati, Ohio).
(§2) Bile volume was determined gravimetrically assuming a density of 1 g/ml. Total 3α-hydroxy bile acid concentration in the bile was measured enzymatically before solvolysis (nonsulfated bile acids) and after solvolysis (total bile acids) (Mashige, F., et al., Direct spectrometry of total bile acids in serum. Clin. Chem. 27: 1352-1356 (1981)). The bile acid output was calculated by multiplying the rate of bile-flow by the bile acid concentration. Biliary phospholipids were determined by an enzymatic procedure based on the choline oxidase method (Nippon Shoji Kaisha, Ltd., Osaka, Japan) (Grantz, D., et al., Enzymatic measurement of choline-containing phospholipids in bile. J. Lipid Res. 22: 273-276 (1981)). Cholesterol was also measured enzymatically (Boehringer Mannehim, Indianapolis, Ind.) (Fromm, H., et al., Use of a simple enzymatic assay for cholesterol analysis in human bile. J. Lipid Res. 21: 259-261 (1980)).
(§3) Results were expressed as mean±standard error of mean (SEM). Bile-flow and biliary lipid output were expressed as μl /min/g liver and nmol/min/g liver, respectively. Statistical analysis was made using INSTAT program (Graphpad Software Inc., San Diego, Calif.). Parametric data among groups were analyzed using Student's t-test. The statistical comparisons between the different groups were made by one-way analysis of variance (ANOVA). […] Linear regression analysis was performed. The choleretic activity of each bile acid was determined from the slope of regression line of the correlation between the bile acid secretion rate and bile-flow and was expressed as […]. Comparisons between slopes were made by one-way ANOVA.

[2] = system: biliary lipid secretion; assay: Biliary lipid (cholesterol, phospholipid) secretion during i.v. infusion; conditions: for Cholesterol output, maximal change / Phospholipid output, maximal change: mean ± SEM, six animals
Experimental: as §1, §2, §3

[3] = Urinary excretion of UDCA after oral administration
Experimental: Male Sprague-Dawley rats (Harlan Sprague-Dawley, Inc., Indianapolis, Ind.), weighing 210-290 g, were maintained on a 12-hour light-dark cycle and fed standard laboratory chow ad libitum for 3 days. The animals were then transferred to metabolic cages in which they were housed individually and fed the same diet. UDCA, UDCA 3-sulfate, UDCA 7-sulfate, and UDCA 3,7-disulfate were administered by gavage at a dose of 250 mg/day for 4 consecutive days. Each group comprised 3-6 rats. Body weights of the animals were measured each day. On day 5, the animals were killed by exsanguination under ether anesthesia. Plasma was collected and frozen at -20° C. The liver was removed, rinsed in normal saline, and flash-frozen in liquid nitrogen. Urine and feces were collected every 24 hours and frozen at -20° C. All animals received humane care in compliance with the "Guide for the Care and Use of Laboratory Animals" prepared by the National Academy of Sciences (National Institutes of Health publication no. 86-23, revised in 1985).
In each group, urine from all animals was pooled on the individual days of collection. Day 1 represented the baseline sample, and samples from days 2, 3 and 4 were obtained during bile acid administration. After the addition of nordeoxycholic acid (1 μg), bile acids were quantitatively extracted from portions of urine (3 mL) and plasma (1 mL) using Bond-Elut C18 cartridges. After liquid-solid extraction, isolation and separation of unconjugated and conjugated bile acids were achieved by lipophilic anion-exchange chromatography on Lipidex-DEAP. Solvolysis of bile acid conjugates and isolation of the hydrolyzed products were performed as described above, and bile acids were converted to volatile methyl ester-trimethylsilyl ether derivatives.
GC-MS analysis was performed using a Finnigan 4635 mass spectrometer (Finnigan Inc., San Jose, Calif.) that housed an identical gas chromatography column operated under the same conditions. Electron ionization (70 eV) mass spectra were recorded over the mass range of 50-800 daltons by repetitive scanning of the eluting components. Identification of bile acids was made on the basis of the gas chromatography retention index relative to a homologous series of n-alkanes, referred to as the methylene unit value, and the mass spectrum compared with authentic standards. Quantification of bile acids was achieved using gas chromatography by comparing the peak height response of the individual bile acids with the peak height response obtained from the internal standard.
Liquid secondary ionization mass spectrometry negative ion spectra of urine samples were obtained after placing approximately 1 μL of the methanolic extract onto a small drop of a glycerol/methanol matrix spotted on a stainless steel probe. This probe was introduced into the ion source of a VG Autospec Q mass spectrometer, and a beam of fast atoms of cesium, generated from cesium iodine (35 KeV), was fired at the target containing the sample. Negative ion spectra were obtained over the mass range of 50-1000 daltons.
Data are expressed as mean±SEM or as mean values of all animals when extracts were pooled before analysis. Results from different groups were compared using paired and unpaired two-tailed Student's t-test. P values of <0.05 were considered statistically significant.

For `C[C@H](CCC(=O)O)[C@H]1CC[C@H]2[C@@H]3[C@@H](OS(=O)(=O)O)C[C@@H]4C[C@H](O)CC[C@]4(C)[C@H]3CC[C@]12C` [UDCA-7S, ursodeoxycholic acid 7-sulfate], which “Bile flow, maximum” value [1] is on record?
Its value is 5.83 ± 0.31 μl/min/g liver.

What about the “Bile salt output (biliary bile acid secretion rate), maximum” value (shortened to “Bile salt output”) [1] of the same compound?
The value was 255.40 ± 18.20 nmol/min/g liver and 255.4±18.2 nmol/min/g liver.

And the “Apparent choleretic activity (slope of regression line)” value ([1]; i.v. infusion)?
Its value is 15 ± 1 µL/µmol.

What about the “Biliary cholesterol secretion (in words)” value [2] of the same compound?
The value was “cholesterol secretion was maintained”.

And the “Biliary phospholipid secretion (in words)” value [2]?
The value was “increased significantly”.

What about the “Cholesterol output, maximal change” value [2] of the same compound?
The value was 1.76 ± 0.23 nmol/min/g liver and 1.76±0.21 nmol/min/g liver.

And the “Phospholipid output, maximal change” value [2]?
The value was 15.00 ± 1.70 nmol/min/g liver.

And the “Urinary excretion of sulfate conjugates of UDCA” value (“Urinary excretion” for short) [3]?
The value was 317.8 nmol/day.

And the “Urinary unconjugated UDCA excretion” value [3]?
Its value is 1.8 nmol/day.

For `C[C@H](CCC(=O)O)[C@H]1CC[C@H]2[C@@H]3[C@@H](OS(=O)(=O)O)C[C@@H]4C[C@H](OS(=O)(=O)O)CC[C@]4(C)[C@H]3CC[C@]12C` [UDCA-DS, ursodeoxycholic acid 3,7-disulfate], which “Bile flow, maximum” value [1] is on record?
Its value is 5.92 ± 0.21 μl/min/g liver.

What about the “Bile salt output” value [1] of the same compound?
Its value is 222.40 ± 24.30 nmol/min/g liver and 222.4±24.3 nmol/min/g liver.

And the “Apparent choleretic activity (slope of regression line)” value ([1]; i.v. infusion)?
Its value is 16 ± 1 µL/µmol.

And the “Biliary cholesterol secretion (in words)” value [2]?
The value was “significantly reduced the biliary cholesterol output”.

And the “Biliary phospholipid secretion (in words)” value [2]?
The value was “significant reduction in biliary phospholipids”.

And the “Cholesterol output, maximal change” value [2]?
Its value is 0.37 ± 0.07 nmol/min/g liver and 0.37±0.12 nmol/min/g liver.

What about the “Phospholipid output, maximal change” value [2] of the same compound?
Its value is 2.50 ± 0.30 nmol/min/g liver.

What about the “Urinary excretion” value [3] of the same compound?
The value was 217.1 nmol/day.

What about the “Urinary unconjugated UDCA excretion” value [3] of the same compound?
Its value is 1.3 nmol/day.

With `C[C@H](CCC(=O)O)[C@H]1CC[C@H]2[C@@H]3[C@@H](O)C[C@@H]4C[C@H](O)CC[C@]4(C)[C@H]3CC[C@]12C` [UDCA, 3 alpha, 7 beta-dihydroxy-5 beta-cholan-24oic acid, reference compound] as the compound, how does the “Bile flow, maximum” value [1] read?
The value was 4.88 ± 0.16 μl/min/g liver.

And the “Bile salt output” value [1]?
Its value is 145.10 ± 17.30 nmol/min/g liver and 145.1±17.3 nmol/min/g liver.

What about the “Apparent choleretic activity (slope of regression line)” value ([1]; i.v. infusion) of the same compound?
Its value is 16 ± 2 µL/µmol.

And the “Biliary cholesterol secretion (in words)” value [2]?
Its value is “significant decline”.

What about the “Biliary phospholipid secretion (in words)” value [2] of the same compound?
Its value is “increased significantly”.

What about the “Cholesterol output, maximal change” value [2] of the same compound?
The value was 1.88 ± 0.19 nmol/min/g liver.

And the “Phospholipid output, maximal change” value [2]?
Its value is 17.20 ± 1.90 nmol/min/g liver.

And the “Urinary excretion” value [3]?
Its value is 4.6 nmol/day.

And the “Urinary unconjugated UDCA excretion” value [3]?
The value was 642.7 nmol/day.

For `C[C@H](CCC(=O)O)[C@H]1CC[C@H]2[C@@H]3[C@@H](O)C[C@@H]4C[C@H](OS(=O)(=O)O)CC[C@]4(C)[C@H]3CC[C@]12C` [UDCA-3S, ursodeoxycholic acid 3-sulfate], which “Choleretic effect / order of maximum bile-flow (in words)” value ([1]; i.v. infusion) is on record?
Its value is “less effective in stimulating bile-flow than unconjugated UDCA”.

And the “Bile flow, maximum” value [1]?
The value was 3.34 ± 0.13 μl/min/g liver.

And the “Bile salt output” value [1]?
The value was 138.90 ± 11.80 nmol/min/g liver and 138.9±11.8 nmol/min/g liver.

And the “Apparent choleretic activity (slope of regression line)” value ([1]; i.v. infusion)?
The value was 13 ± 1 µL/µmol.

What about the “Biliary cholesterol secretion (in words)” value [2] of the same compound?
Its value is “significantly reduced the biliary cholesterol output”.

And the “Biliary phospholipid secretion (in words)” value [2]?
The value was “significant reduction in biliary phospholipids”.

And the “Cholesterol output, maximal change” value [2]?
The value was 0.40 ± 0.02 nmol/min/g liver and 0.40±0.05 nmol/min/g liver.

What about the “Phospholipid output, maximal change” value [2] of the same compound?
The value was 4.00 ± 0.50 nmol/min/g liver.

What about the “Urinary excretion” value [3] of the same compound?
Its value is 2.7 nmol/day.

What about the “Urinary unconjugated UDCA excretion” value [3] of the same compound?
The value was 5.2 nmol/day.
